In patent US20100121048A1, “Cyclic Amine Compound and Use Thereof for the Prophylaxis or Treatment of Hypertension” (priority 2006, published 2010) one finds inhibition data, which are given here for twelve molecules.

The test has as its target T1, Human renin (Homo sapiens, UniProt P00797).
T1 construct: taking the active type (67-406); made in house; host or cells: FreeStyle 293-F cells (transient expression of pcDNA3.1(+)/hREN)
T1 sequence (P00797 67-406): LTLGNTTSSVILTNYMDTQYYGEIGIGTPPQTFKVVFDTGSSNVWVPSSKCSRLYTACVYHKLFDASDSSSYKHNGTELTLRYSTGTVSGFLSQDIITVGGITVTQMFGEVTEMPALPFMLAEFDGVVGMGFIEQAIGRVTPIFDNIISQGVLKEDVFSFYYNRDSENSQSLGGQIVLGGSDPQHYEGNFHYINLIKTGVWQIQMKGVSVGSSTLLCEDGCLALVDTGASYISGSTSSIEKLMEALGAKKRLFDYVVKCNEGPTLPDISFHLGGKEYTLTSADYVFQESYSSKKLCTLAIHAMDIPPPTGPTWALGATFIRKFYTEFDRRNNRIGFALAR
In words: Measurement of renin inhibition value (human renin, FITC substrate peptide, capillary electrophoresis). The settings on record: active type renin (67-406), pH 6.0, 37° C., 30 min; for inhibition at 1 µM: test compound 1 μM, read-out: Human Renin Inhibitory Activity: inhibitory activity (%) at 1 μM; for inhibition at 10 µM: test compound 10 μM, read-out: Human Renin Inhibitory Activity: inhibitory activity (%) at 10 μM. The format is biochemical. On the procedure: Human renin was obtained by expressing preprorenin (1-406) in an animal cell, treating the prorenin (24-406) contained in the culture supernatant with trypsin, and taking the active type (67-406).
A plasmid DNA to express human renin in HEK293 cells was prepared as follows. PCR was carried out using human renal cDNA (Clontech Laboratories, Inc., Marathon Ready cDNA) as the template and using two synthetic DNAs (5′-[…]-3′ AND 5′-[…]-3′), and the obtained fragments were cloned using a TOPO TA Cloning Kit (Invitrogen Corp.). The obtained fragments were subcloned into pcDNA3.1(+) that had been cleaved by HindIII and BamHI, thus to obtain a plasmid DNA for human preprorenin expression (PcDNA3.1(+)/hREN).
Expression of human preprorenin was conducted using FreeStyle 293 Expression System (Invitrogen Corp.). According to the manual accompanying the FreeStyle 293 Expression System, the plasmid DNA for human preprorenin expression (pcDNA3.1(+)/hREN) constructed in Experimental Example 1 was used to conduct transient expression by FreeStyle 293-F cells. After transfection of the plasmid DNA, the cells were subjected to shaking culture under the conditions of 37° C., 8% CO2 and 125 rpm for 3 days. A 600-ml aliquot of the culture solution was centrifuged at 2,000 rpm for 10 min to recover the culture supernatant containing prorenin (24-406). The culture supernatant was concentrated by ultrafiltration using a PM10 membrane (Millipore, Inc.) to a volume of about 50 ml, and then was dialyzed against 20 mM Tris-hydrochloric acid (pH 8.0). The dialyzate was fed to a 6-ml RESOURCE Q column (Amersham Biosciences, Inc.) equilibrated with 20 mM Tris-hydrochloric acid (pH 8.0) at a flow rate of 3 ml/min to adsorb the prorenin (24-406). After washing the column with the buffer solution used in the equilibration, elution was carried out by means of a linear concentration gradient of sodium chloride from 0 M to 0.4 M. The fraction containing prorenin (24-406) was collected and concentrated using Vivaspin 20 (molecular weight cut off 10,000; Vivascience, Inc.) to a volume of about 2 ml.
The concentrated liquid was subjected to gel filtration chromatography using HiLoad 16/60 Superdex 200 pg (Amersham Biosciences, Inc.) equilibrated with 20 mM Tris-hydrochloric acid (pH 8.0) containing 0.15 M sodium chloride, at a flow rate of 1.4 ml/min, thus to obtain 3.6 mg of purified prorenin (24-406).
To 3.6 mg of prorenin (24-406) was dissolved in 5.2 ml of 0.1 M Tris-hydrochloric acid (pH 8.0), 12 μg of trypsin (Roche Diagnostics Corp.) was added, and the mixture was allowed to react at 28° C. for 55 min to carry out activation of renin. After the reaction, 0.4 ml of immobilized trypsin inhibitor (Pierce Biotechnology, Inc.) was added to remove the trypsin used in the activation by adsorption. The reaction liquid containing the active type renin was concentrated using Vivaspin 20 (molcular weight cut off 10,000; Vivascience, Inc.), and was diluted with 20 mM Tris-hydrochloric acid (pH 8.0). The diluted liquid was fed to a TSKgel DEAE-5 PW column (7.5 mm I.D.×75 mm, Tosoh Corp.) equilibrated with 20 mM Tris-hydrochloric acid (pH 8.0) at a flow rate of 1 ml/min to adsorb the active type renin (67-406). The column was washed with the buffer solution used for the equilibration, and then elution was carried out by means of a sodium chloride linear concentration gradient from 0 M to 0.3 M, thus to obtain 1.5 mg of a purified product of active type renin (67-406).
5 μl each of the test compound (containing 50% DMSO) was added to each well of a 384-well black plate (Nalge Nunc International Co., Ltd.). Renin was diluted with a buffer solution for reaction (20 mM citric acid-sodium citrate (pH 6.0)) to a concentration of 0.5 μg/ml, and 35 μl each of the dilution was added to each well. […]

Turning to `O=C(c1ncn(C2Cc3ccccc3C2)c1-c1ccccc1)N1CCNC[C@H]1Cc1ccccc1` [Example 73, (2R)-2-benzyl-1-{[1-(2,3-dihydro-1H-inden-2-yl)-5-phenyl-1H-imidazol-4-yl]carbonyl}piperazine], the inhibition at 1 µM is 97% and the inhibition at 10 µM worked out at 101%.

With `CS(=O)(=O)c1ccc(COC[C@@H]2CNCCN2C(=O)c2ncn(-c3cccc(N4CCOCC4)c3)c2-c2ccccc2)cc1` [Example 472, 4-[3-(4-{[(2S)-2-({[4-(methylsulfonyl)benzyl]oxy}methyl)piperazin-1-yl]carbonyl}-5-phenyl-1H-imidazol-1-yl)phenyl]morpholine], the inhibition at 1 µM was 100% and the inhibition at 10 µM was determined as 102%.

For the molecule `COc1cccc(-n2c(C)cc(C(=O)N3CCNC[C@H]3Cc3ccccc3)c2-c2ccccc2)c1OC` [Example 43, (2R)-2-benzyl-1-{[1-(2,3-dimethoxyphenyl)-5-methyl-2-phenyl-1H-pyrrol-3-yl]carbonyl}piperazine], the inhibition at 1 µM is 104% and the inhibition at 10 µM was 106%.

In the case of `COc1cccc(-n2cnc(C(=O)N3CCNC[C@H]3Cc3ccccc3)c2-c2ccccc2)c1OC` [Example 57, (2R)-2-benzyl-1-([1-(2,3-dimethoxyphenyl)-5-phenyl-1H-imidazol-4-yl]carbonyl}piperazine], the inhibition at 1 µM came out at 108% and the inhibition at 10 µM is 108%.

Regarding `COc1ccc(S(=O)(=O)N2CCCC(n3cnc(C(=O)N4CCNC[C@H]4Cc4ccccc4)c3-c3ccccc3)C2)cn1` (stereo partly drawn) [Example 477, (2R)-2-benzyl-1-[(1-{1-[(6-methoxypyridin-3-yl)sulfonyl]piperidin-3-yl}-5-phenyl-1H-imidazol-4-yl)carbonyl]piperazine], the inhibition at 1 µM was 102% and the inhibition at 10 µM came to 104%.

Regarding `O=C(O)c1ccc(C[C@@H]2CNCCN2C(=O)c2ncn(-c3cccc(N4CCOCC4)c3)c2-c2ccccc2)cc1` [Example 161, 4-[((2R)-1-{[1-(3-morpholinophenyl)-5-phenyl-1H-imidazol-4-yl]carbonyl}piperazin-2-yl)methyl]benzoic acid], the inhibition at 1 µM came out at 100% and the inhibition at 10 µM is 101%.

Turning to `O=C(c1ncn(C2CCCN(S(=O)(=O)c3ccccc3)C2)c1-c1ccccc1)N1CCNC[C@H]1Cc1ccccc1` (stereo partly drawn) [Example 476, (2R)-2-benzyl-1-({5-phenyl-1-[1-(phenylsulfonyl)piperidin-3-yl]-1H-imidazol-4-yl}carbonyl)piperazine], the inhibition at 1 µM was 99% and the inhibition at 10 µM was 99%.

For `Cc1cc(C(=O)N2CCNC[C@H]2Cc2ccccc2)c(-c2ccccc2)n1-c1cccc(N2CCOCC2)c1` [Example 105, 4-(3-(3-{[(2R)-2-benzylpiperazin-1-yl]carbonyl}-5-methyl-2-phenyl-1H-pyrrol-1-yl)phenyl]morpholine], the inhibition at 1 µM came to 102% and the inhibition at 10 µM was found to be 104%.

Regarding `O=C(c1ncn(-c2cccc(N3CCOCC3)c2)c1-c1ccccc1)N1CCNC[C@H]1Cc1ccccc1` [Example 56, 4-(3-(4-{[(2R)-2-benzylpiperazin-1-yl]carbonyl}-5-phenyl-1H-imidazol-1-yl)phenyl]morpholine], the inhibition at 1 µM turned out to be 104% and the inhibition at 10 µM was 103%.

In the case of `COc1nc(C(=O)N2CCNC[C@H]2Cc2ccccc2)c(-c2ccccc2)n1-c1ccccc1` [Example 475, (2R)-2-benzyl-1-[(2-methoxy-1,5-diphenyl-1H-imidazol-4-yl)carbonyl]piperazine], the inhibition at 1 µM is 97% and the inhibition at 10 µM turned out to be 99%.

As for `O=C(C[C@H](CCc1ccccc1)n1cnc(C(=O)N2CCNC[C@H]2Cc2ccccc2)c1-c1ccccc1)N1CCOCC1` [Example 478, 4-[(3S)-3-(4-{[(2R)-2-benzylpiperazin-1-yl]carbonyl}-5-phenyl-1H-imidazol-1-yl)-5-phenylpentanoyl]morpholine], the inhibition at 1 µM came out at 99% and the inhibition at 10 µM came to 101%.

For the molecule `CCCCNc1ccccc1-n1ccc(C(=O)N2CCNCC2Cc2ccccc2)c1-c1ccccc1` (racemic) [Example 99, 2-(3-[(2-benzylpiperazin-1-yl)carbonyl]-2-phenyl-1H-pyrrol-1-yl}-N-butylaniline], the inhibition at 1 µM turned out to be 105% and the inhibition at 10 µM came out at 107%.
